Laboratory results published in ChEMBL document CHEMBL2203098 (J Med Chem, 2012).
Calls of active or inactive are those of the source. The calls are words filed in the database; no cut-off is given here.

What was measured:
[1] = biological target: Acetylcholinesterase (Electrophorus electricus, UniProt O42275)
Description: Inhibition of electric eel AChE by colorimetric Ellman assay

[2] = biological target: Cholinesterase (Equus caballus, UniProt P81908)
[3] = biological target: Acetylcholinesterase (Electrophorus electricus) (UniProt O42275); experiment: Inhibition of electric eel AChE at 100 uM by colorimetric Ellman assay
Chain of Acetylcholinesterase (Electrophorus electricus) (O42275 24-633 limits assumed): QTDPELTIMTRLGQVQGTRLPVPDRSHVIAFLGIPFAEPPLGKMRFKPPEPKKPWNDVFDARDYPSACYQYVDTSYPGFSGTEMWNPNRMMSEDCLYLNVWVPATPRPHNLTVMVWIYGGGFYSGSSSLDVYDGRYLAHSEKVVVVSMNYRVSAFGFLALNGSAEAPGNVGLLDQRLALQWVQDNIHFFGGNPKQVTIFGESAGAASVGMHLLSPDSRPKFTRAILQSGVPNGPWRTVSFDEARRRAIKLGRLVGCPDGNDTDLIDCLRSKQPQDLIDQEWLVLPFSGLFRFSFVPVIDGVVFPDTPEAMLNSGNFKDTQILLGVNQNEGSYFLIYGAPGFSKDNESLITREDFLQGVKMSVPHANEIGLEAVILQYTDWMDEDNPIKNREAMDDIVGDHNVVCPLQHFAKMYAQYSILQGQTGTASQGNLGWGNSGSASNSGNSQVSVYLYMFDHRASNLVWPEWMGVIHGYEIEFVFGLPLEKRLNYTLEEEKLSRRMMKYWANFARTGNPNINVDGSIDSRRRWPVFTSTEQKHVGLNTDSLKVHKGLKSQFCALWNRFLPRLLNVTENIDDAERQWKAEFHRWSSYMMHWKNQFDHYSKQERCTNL

[4] = biological target: Cholinesterase (Equus caballus) (UniProt P81908); experiment: Inhibition of […] at 100 uM by colorimetric Ellman assay
Chain of Cholinesterase (Equus caballus) (P81908 whole entry): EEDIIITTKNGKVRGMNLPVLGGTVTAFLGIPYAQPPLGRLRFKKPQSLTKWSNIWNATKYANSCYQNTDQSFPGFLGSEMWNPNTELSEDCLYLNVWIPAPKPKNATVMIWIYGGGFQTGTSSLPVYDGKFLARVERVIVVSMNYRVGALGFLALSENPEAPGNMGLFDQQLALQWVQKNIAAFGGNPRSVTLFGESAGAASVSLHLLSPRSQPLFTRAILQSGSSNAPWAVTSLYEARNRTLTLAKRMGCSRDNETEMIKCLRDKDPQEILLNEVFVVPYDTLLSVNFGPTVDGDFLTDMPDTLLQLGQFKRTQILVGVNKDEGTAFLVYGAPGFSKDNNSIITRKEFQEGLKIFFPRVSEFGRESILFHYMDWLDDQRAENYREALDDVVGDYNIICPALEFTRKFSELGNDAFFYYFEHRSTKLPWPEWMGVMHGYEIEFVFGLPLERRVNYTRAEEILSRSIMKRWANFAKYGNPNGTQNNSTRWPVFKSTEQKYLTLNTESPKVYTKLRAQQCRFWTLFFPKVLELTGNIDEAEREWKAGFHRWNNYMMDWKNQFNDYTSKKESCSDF

[5] = system: HT-22; experiment: Neuroprotective activity against glutamate induced oxidative stress in mouse hippocampal HT22 cells assessed as cell viability at 1 uM after 24 hrs by MTT assay; format: functional, cell-based
[6] = system: HT-22; experiment: Neuroprotective activity against glutamate induced oxidative stress in mouse hippocampal HT22 cells assessed as cell viability at 10 uM after 24 hrs by MTT assay; format: functional, cell-based
[7] = system: HT-22; experiment: Neuroprotective activity against glutamate induced oxidative stress in mouse hippocampal HT22 cells assessed as cell viability at 25 uM after 24 hrs by MTT assay; format: functional, cell-based
[8] = system: HT-22; experiment: Neuroprotective activity against glutamate induced oxidative stress in mouse hippocampal HT22 cells assessed as cell viability at 50 uM after 24 hrs by MTT assay; format: functional, cell-based
[9] = system: Rattus norvegicus; experiment: Hepatoprotective against tacrine-induced toxicity in Wistar rat liver assessed as increase in ratio of reduced/oxidised glutathione at 2 uM/100 gram of body weight, ip after 24 hrs; format: functional, organism-based
[10] = system: Rattus norvegicus; experiment: Hepatoprotective against tacrine-induced toxicity in Wistar rat liver assessed as increase in ratio of reduced/oxidised glutathione at 6 uM/100 gram of body weight, ip after 24 hrs; format: functional, organism-based
[11] = system: Rattus norvegicus; experiment: Hepatoprotective activity against tacrine-induced toxicity in Wistar rat liver assessed as decrease in tissue content of TBARS at 2 uM/100 gram of body weight, ip after 24 hrs; format: functional; set-up: scale not given: the % may be the effect or the level left
[12] = system: HT-22; experiment: Neurotoxicity in mouse hippocampal HT22 cells assessed as cell viability at 1 uM after 24 hrs by MTT assay; format: toxicity, cell-based; conditions: ht-22, 24 h
[13] = system: HT-22; experiment: Neurotoxicity in mouse hippocampal HT22 cells assessed as cell viability at 10 uM after 24 hrs by MTT assay; format: toxicity, cell-based; conditions: ht-22, 24 h
[14] = system: HT-22; experiment: Neurotoxicity in mouse hippocampal HT22 cells assessed as cell viability at 25 uM after 24 hrs by MTT assay; format: toxicity, cell-based; conditions: ht-22, 24 h
[15] = Hepatotoxicity against human HSC cells assessed as reduction in cell number up to 200 uM after 24 hrs using crystal violet staining by photometry; format: toxicity, cell-based
[16] = Hepatotoxicity against human HSC cells assessed as reduction in cell number at 10 to 75 uM after 24 hrs by fluorescence microscopic analysis; format: toxicity, cell-based
[17] = Hepatotoxicity against human HSC cells assessed as mitochondrial swelling at 50 to 75 uM after 24 hrs by fluorescence microscopic analysis; format: toxicity, cell-based
[18] = system: Rattus norvegicus; experiment: Hepatoprotective activity in Wistar rat assessed as decrease in tissue content of TBARS at 2 uM/100 gram of body weight, ip after 24 hrs; format: functional; set-up: scale not given: the % may be the effect or the level left

Chain of Acetylcholinesterase (O42275 whole entry): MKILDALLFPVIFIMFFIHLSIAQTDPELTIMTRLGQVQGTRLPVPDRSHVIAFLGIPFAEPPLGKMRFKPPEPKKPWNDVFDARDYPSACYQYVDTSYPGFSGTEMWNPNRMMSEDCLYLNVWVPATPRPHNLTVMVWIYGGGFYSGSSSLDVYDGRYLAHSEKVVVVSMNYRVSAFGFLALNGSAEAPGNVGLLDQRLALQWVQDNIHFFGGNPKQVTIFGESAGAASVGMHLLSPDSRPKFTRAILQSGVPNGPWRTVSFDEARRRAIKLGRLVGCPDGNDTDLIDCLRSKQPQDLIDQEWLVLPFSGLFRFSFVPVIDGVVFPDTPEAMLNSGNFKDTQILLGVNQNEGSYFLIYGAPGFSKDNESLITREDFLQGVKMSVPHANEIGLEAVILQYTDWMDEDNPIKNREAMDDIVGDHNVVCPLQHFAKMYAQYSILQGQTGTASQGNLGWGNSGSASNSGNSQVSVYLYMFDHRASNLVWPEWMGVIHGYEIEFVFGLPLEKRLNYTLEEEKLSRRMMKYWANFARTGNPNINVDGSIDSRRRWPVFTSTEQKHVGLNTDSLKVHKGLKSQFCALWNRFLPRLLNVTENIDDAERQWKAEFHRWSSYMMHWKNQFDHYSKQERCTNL
Chain of Cholinesterase (P81908 whole entry): as the sequence (P81908 whole entry) above

Row | Structure (SMILES) | IC50 [1] [nM] | IC50 [2] [nM] | inhibition [3] [%] | inhibition [4] [%] | Activity [5] | Activity [6] | Activity [7] | Activity [8] | Activity [9] | Activity [10] | Activity [11] [%] | Activity [12] | Activity [13] | Activity [14] | Activity [15] | Activity [16] | Activity [17] | Activity [18] [%]
1 | NCCCCCCNc1c2c(nc3ccccc13)CCCC2 | 39 | 2 |  |  |  |  |  |  |  |  |  |  |  |  |  |  |  | 
2 | COc1cc(C2Oc3cc([C@H]4Oc5cc(O)cc(O)c5C(=O)[C@@H]4O)ccc3OC2CO)ccc1O (stereo partly specified) [SILIBININ] |  |  | 5.5 | 3.1 | inactive | inactive | inactive | inactive | Active | Active | 15 |  |  |  |  |  |  | 
3 | COc1cc([C@@H]2Oc3cc([C@H]4Oc5cc(O)cc(O)c5C(=O)[C@@H]4O)ccc3O[C@H]2COC(=O)CCC(=O)NCCCCCCNc2c3c(nc4ccccc24)CCCC3)ccc1O | 53.9 | 49.7 |  |  | Active | Active | Active | Active |  |  |  | Non-toxic | Non-toxic | Non-toxic | Non-toxic | Non-toxic | Non-toxic | 25
4 | O=C(O)CCC(=O)NCCCCCCNc1c2c(nc3ccccc13)CCCC2 | 102 | 361 |  |  |  |  |  |  |  |  |  |  |  |  |  |  |  | 
